Assay type in all cases: cell-based
Experiment [1] has as its system Colo205 tumor cells. Nature of the experiment: Method A: Methylene Blue Growth Inhibition Assay, Colo205. To be noted: Homo sapiens, COLO 205, 72 h, 3 days.
For experiment [2], the system named is HT-29 tumor cells. Nature of the experiment: Method C: Cell Growth Inhibition Assay (CellTiter-Glo), HT-29. To be noted: Homo sapiens, HT-29, 72 h, 3 days, 4-parameter fit. In outline: (§1)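 HT-29 and HN5 were grown in high-glucose DMEM with 10% FBS, SK-MEL-28 in EMEM with nonessential amino acids, sodium pyruvate and 10% FBS, and A375P F11s in RPMI with 10% FBS and sodium pyruvate. Cells (500/well) received 1:3 compound dilutions for 3 days, with CellTiter-Glo readout and 4-parameter IC50.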
A general note: Cellular ATP, detected with luciferase, serves as a proxy for viable cell number.

The subject of experiment [3] is HN5 tumor cells. Nature of the experiment: Method A: Methylene Blue Growth Inhibition Assay, HN5. Particulars: Homo sapiens, 72 h, 3 days. In outline: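 BT474 (10,000/well) and HN5 (3,000/well) cells plated, dosed next day in DMEM (0.3% DMSO final) and grown 3 days at 37° C. Biomass read as methylene blue OD 620 nm; growth inhibition relative to vehicle, IC50 by nonlinear regression.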

The test system of experiment [4] is Colo205 tumor cells. Nature of the experiment: Method C: Cell Growth Inhibition Assay (CellTiter-Glo), Colo205. To be noted: Homo sapiens, COLO 205, 72 h, 3 days, 4-parameter fit. In outline:
(§2)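 Luminescent ATP signal (CellTiter-Glo, after 30 min room-temperature equilibration) served as a surrogate for cell number after a 3-day compound exposure at 37° C. Cells were plated at 500/well and treated with serially diluted compound at 0.2% DMSO. IC50 values are 4-parameter fits against DMSO-treated wells.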

Experiment [5] relates to SK-MEL-3 tumor cells. Nature of the experiment: Method C: Cell Growth Inhibition Assay (CellTiter-Glo), SK-MEL-3. To be noted: Homo sapiens, SK-MEL3, 72 h, 3 days, 4-parameter fit. In short, it runs like this: as §2
The subject of experiment [6] is A375P F11s tumor cells. Nature of the experiment: Method C: Cell Growth Inhibition Assay (CellTiter-Glo), A375P F11s. To be noted: Homo sapiens, 72 h, 3 days, 4-parameter fit. In outline: as §1

Structures are written as SMILES. Some results are limits rather than exact numbers.

`COc1cc(Nc2nccc(-c3sc(N)nc3-c3cccc(NC(=O)c4c(F)cccc4F)c3)n2)cc(OC)c1OC` [Example 16, N-[3-(2-Amino-5-{2-[(3,4,5-trimethoxyphenyl)amino]pyrimidiN-4-yl}-1,3-thiazol-4-yl)phenyl]-2,6-difluorobenzamide]: the 50% inhibitory concentration (IC50) in experiment [1] is less than 100 nM; in experiment [2], 100 to 1000 nM.

Turning to `COc1ccc(Nc2nccc(-c3sc(N)nc3-c3cccc(NC(=O)c4c(F)cccc4F)c3)n2)cc1N1CCNCC1` [Example 18, N-[3-(2-Amino-5-{2-[(4-methoxy-3-piperaziN-1-ylphenyl)amino]pyrimidiN-4-yl}-1,3-thiazol-4-yl)phenyl]-2,6-difluorobenzamide], the IC50 is less than 100 nM in experiment [3] and more than 1000 nM in experiment [4].

In turn, `Cc1cc(-c2sc(N)nc2-c2cccc(NC(=O)c3c(F)cccc3F)c2)nc(Nc2cccc(F)c2)n1` [Example 48, N-[3-(2-Amino-5-{2-[(3-fluorophenyl)amino]-6-methyl-4-pyrimidinyl}-1,3-thiazol-4-yl)phenyl]-2,6-difluorobenzamide] returned a concentration for half-maximal inhibition (IC50) in experiment [4] of more than 1000 nM.

Take `CCNc1nc(-c2cccc(NC(=O)C3CC3)c2)c(-c2ccnc(Nc3ccc(OCCN4CCCC4)c(Cl)c3)n2)s1` [Example 63, N-{3-[5-{2-[(3-Chloro-4-{[2-(1-pyrrolidinyl)ethyl]oxy}phenyl)amino]-4-pyrimidinyl}-2-(ethylamino)-1,3-thiazol-4-yl]phenyl}cyclopropanecarboxamide]: the IC50 in experiment [5], in experiment [6] and in experiment [2] was 100 to 1000 nM throughout.

Take `Nc1nc(-c2cccc(C(=O)Nc3c(F)cccc3F)c2)c(-c2ccnc(Nc3cccc(CN4CCCC4)c3)n2)s1` [Example 77, 3-[2-Amino-5-(2-{[3-(1-pyrrolidinylmethyl)phenyl]amino}-4-pyrimidinyl)-1,3-thiazol-4-yl]-N-(2,6-difluorophenyl)benzamide]: the figures for the IC50 in experiment [5], in experiment [6] and in experiment [2] were less than 100 nM, 100 to 1000 nM and 100 to 1000 nM, respectively.

With `Cc1nc(-c2cccc(NC(=O)c3c(F)cccc3F)c2)c(-c2ccnc(Nc3ccc(OC4CCN(C(=O)OCc5ccccc5)CC4)c(F)c3)n2)s1` [Example 106], in experiment [4], the 50% inhibitory concentration (IC50) was more than 1000 nM.

With `CCc1nc(-c2cccc(NC(=O)c3c(F)cccc3F)c2)c(-c2ccnc(Nc3cccc(CN4CCCC4)c3)n2)s1` [Example 115, N-{3-[2-Ethyl-5-(2-{[3-(1-pyrrolidinylmethyl)phenyl]amino}-4-pyrimidinyl)-1,3-thiazol-4-yl]phenyl}-2,6-difluorobenzamide], the IC50 in experiment [5] was 100 to 1000 nM; in experiment [4], 100 to 1000 nM; in experiment [6] it was more than 1000 nM; in experiment [2], 100 to 1000 nM.

The term IC50 denotes the concentration that inhibits the measured activity by half. A high value points to weaker potency in that assay.

The values above are taken from patent US20110098296A1, “Thiazole And Oxazole Kinase Inhibitors” (priority 2007, published 2011).
